Here are results for eight molecules from publication PMC12057046, “Elucidation of short linear motif-based interactions of the MIT and rhodanese domains of the ubiquitin-specific protease 8” (Biology Direct, 2025).

For test [1], the system named is USP8 MIT domain. In words: SPOT array of predicted peptides from known interactors, USP8 MIT domain. The test is classed as binding, human. Particulars: for Percentage (%) normalized to highest intensity and corrected for background: SPOT array, GST-tagged MIT 100 µM, overnight 4 °C, chemiluminescence, highest intensity = DNAJB6; for Percentage (%): Supplementary Fig. 4B, normalized to the highest intensity and corrected for background. From the text: To further assess the SLiM-based interactions of the USP8 MIT domain, we designed a peptide array tiling 24 potential binding sites in previously reported USP8 interactors. We used SLiMSearch to search for peptides that contain shorter or longer matches to the motif (Supplementary Table S4A). […] The DNAJB6_118 - 130 peptide was predicted as a binder based on a partial DFx{2,3}R motif. The DNAJB6-USP8 interaction is supported by previous GST-pulldown experiments and colocalization of the two proteins in male mouse germ cells, and the interaction is thought to be of importance to the protein quality control to yield functional spermatozoa. In the case of the CDH1_863 - 877 peptide it was predicted as USP8 MIT ligand based on the presence of an RFxxL motif. The previous support of the CDH1-USP8 interaction is based on proximity labelling mass spectrometry, and our results thus provide evidence for a binary interaction between the two proteins and define a binding site. To confirm that the motifs used to predict the interactions were of importance for binding we designed an alanine scanning peptide SPOT array analysis of the DNAJB6_118 - 130 and the CDH1_863 - 877 peptides. […] In summary, we find that the USP8 MIT domain binds to a MIM1-like motif that can be expressed by [[…]], as well as degenerate variants thereof. […] The membranes of predicted peptides were purchased by JPT Peptide Technologies (Berlin, Germany). The membranes were incubated with blocking buffer containing 5% skim milk in TBST (50 mM Tris, 150 mM NaCl pH 7.5, 0.05% Tween-20) for two hours at room temperature. The blocked membranes were incubated with GST-tagged proteins (100 μM for MIT domain and 150 μM for the Rhodanese domain) in blocking buffer overnight at 4 °C. After rinsed with TBST the membranes were incubated with HRP-conjugated anti-GST antibody (Cytiva, RPN1236; 1:3000 dilution) in blocking buffer for 1 h at 4 °C and subsequently rinsed with TBST to remove any excess antibody. The ECL reagent (Clarity Max Western ECL substrate, 1705062, BioRad) was used for chemiluminescence read-out with the ChemiDoc Imaging system (BioRad). The images were analysed with Fiji (ImageJ2 version 2.9.0). […] used to design the peptide arrays with known interactors predicted to contain the motifs. The background signal intensity was subtracted, and the corrected signal intensities were normalized to the positive control and presented as percentage.

For test [2], the system named is USP8 MIT domain. The test can be described thus: SPOT array alanine scanning, USP8 MIT domain. The note with it: cellulose-bound peptides, GST-tagged MIT 100 µM, 5% skim milk TBST, overnight 4 °C, anti-GST HRP chemiluminescence; normalized to wild type. The format is binding, human. Here is the method: SPOT array alanine scanning of peptides was designed, and cellulose-bound peptides were synthesized using Fluorenylmethyloxycarbonyl (Fmoc) solid phase synthesis with a MultiPep synthesizer (INTAVIS Peptide Services, Tübingen, Germany). The membranes of predicted peptides were purchased by JPT Peptide Technologies (Berlin, Germany). The membranes were incubated with blocking buffer containing 5% skim milk in TBST (50 mM Tris, 150 mM NaCl pH 7.5, 0.05% Tween-20) for two hours at room temperature. The blocked membranes were incubated with GST-tagged proteins (100 µM for MIT domain and 150 µM for the Rhodanese domain) in blocking buffer overnight at 4 °C. After rinsed with TBST the membranes were incubated with HRP-conjugated anti-GST antibody (Cytiva, RPN1236; 1:3000 dilution) in blocking buffer for 1 h at 4 °C and subsequently rinsed with TBST to remove any excess antibody. The ECL reagent (Clarity Max Western ECL substrate, 1705062, BioRad) was used for chemiluminescence read-out with the ChemiDoc Imaging system (BioRad). The images were analysed with Fiji (ImageJ2 version 2.9.0). SLiMSearch4 was used to design the peptide arrays with known interactors predicted to contain the motifs. The background signal intensity was subtracted, and the corrected signal intensities were normalized to the positive control and presented as percentage.

For test [3], the system named is USP8 MIT domain. In words: Proteomic peptide-phage display (ProP-PD) selection against USP8 MIT domain. The test is classed as binding, human. More on the design: Confidence: scale not given here. The note with it: for NGS counts (%): ProP-PD, human disorderome library, GST-tagged MIT bait, four rounds of selection, percent of NGS counts associated with each peptide, Fig. 1B; for max_counts: Total NGS counts; for Confidence: calculated based on four metrics: overlapping peptides, replicated peptides, motif match, peptide counts; for Counts: fraction of NGS counts for a selection; for Promiscuity: number of baits selections where the peptide has been observed, calculated on the domain level; for Replicates: number of screens against the bait protein in which the peptide has been found; for Specificity: proportion for the current bait of the total NGS read counts of the peptide for all baits screened with this library. A digest of the protocol: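 GST-tagged USP8 MIT domain, immobilized on plates, used as bait for four rounds of phage selection with a human disorderome peptide library, after pre-clearing on GST at 4 °C. Binding 2 h at 4 °C, at least three replicates. Enriched peptides identified by next-generation sequencing.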

For a further test, the target named is T1, USP8 Rhod domain (Homo sapiens, UniProt P40818).
T1 construct: USP8 Rhod (174–317) (UniProt: P40818); GST (cleaved yes); made in house; host or cells: Escherichia coli BL21-Gold (DE3)
T1 sequence (P40818 174-317): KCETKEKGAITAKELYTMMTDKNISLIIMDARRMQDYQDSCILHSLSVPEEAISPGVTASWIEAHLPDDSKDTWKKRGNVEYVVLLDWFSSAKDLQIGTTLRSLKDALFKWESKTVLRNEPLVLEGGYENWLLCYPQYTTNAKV
The test can be described thus: Competitive fluorescence polarization (displacement of FITC-TET3_1705 − 1720). The note with it: FP displacement, 1.5 µM protein, 10 nM FITC-labeled peptide, 50 mM sodium phosphate pH 7.4, 1 mM DTT; mean ± SD, N = 3 technical triplicates (Fig. 3 legend). The test is classed as binding. Here is the method:
We next evaluated the peptide binding of the Rhod domain by ProP-PD selections. […] (February 2025).
The peptides were obtained from GeneCust (France) with > 95% purity. Measurement of the direct binding with a constant concentration of FITC-labeled peptides was performed by increasing concentration of the protein. The KD value from the direct binding experiment was obtained by fitting against a quadratic equation (Eq. 4) where “pept” indicates the fixed probe peptide concentrations, X indicates the protein concentration, the constant A is the signal amplitude divided by probe peptide concentration, and B is the plateau value. Eq. 4: [drawing 9]
Displacement experiments were carried out by increasing concentration of the unlabeled peptides. The data were fitted with a sigmoidal dose-response equation. The results were analysed with GraphPad Prism version 9.2.0.
A general note: Polarisation of emitted light reports the rotation of a fluorescent probe.

Test [4] concerns USP8 MIT domain. The note with it: 187-ELSQRLARLR-196; ref [17], [38]; cited from earlier work. The text has this:
To further elucidate the peptide binding determinants of the interactions with USP8 MIT domain we performed a deep mutational scanning (DMS) analysis of two model peptides: one peptide from melanophilin (MLPH481 − 496: […]) which served as a representative of the MIM1-like motif and the EFCAB12 peptide (EFCAB12_1 − 16: […]), which shares some sequence similarity with the DBP116 − 131 peptide. We designed a library of peptides in which each position of the two parental peptides were mutated to all other amino acids (except cysteine) following a classic saturation mutag ...

Turning to “PFEDFFGNRRGPR [DNAJB6_118 − 130, DnaJ homolog subfamily B member 6 peptide]”, in the test on USP8 MIT domain [1], the “Percentage (%) normalized to highest intensity and corrected for background” value (from here on “Percentage (%) normalized”) is 100%; the “Percentage (%)” value was 100%. The “residues important for binding by SPOT array alanine scanning” value (from here on “residues important for binding”) with USP8 MIT domain [2] was “confirmed the importance of the aspartic acid and the phenylalanine of the predicted motif (DFx{2,3}R) and showed that the mutations of the flanking residues also reduced binding”.

As for “EVEHRDLEDRYNQLLK [Girdin1192 − 1207, CCDC88A-encoded protein Girdin peptide]”, in the test on USP8 MIT domain [2], the “residues important for binding” value is recorded as “binding to the Girdin1192 − 1207 peptide was lost when the residues LExRYxxLL were mutated to alanine”. For the same molecule, in the test on USP8 MIT domain [3], the “NGS counts (%)” value stood at 1.10%, the max_counts is reported as 80, the Confidence was 2 and the Counts came out at 0.002924. Moreover, in the test with USP8 MIT domain [3], the Promiscuity was 1, the Replicates came to 3 and the Specificity is listed as 1.

Take “PEKPHDSLDSRIEMLL [SETD1B492 − 507, Histone-lysine N-methyltransferase SETD1B peptide]”: the “residues important for binding” value in the test on USP8 MIT domain [2] was “confirmed the contributions of the motif residues in binding and the aspartic acid in position p2 of the motif”. Also, in the test with USP8 MIT domain [3], the “NGS counts (%)” value is given as 1.37%, the max_counts is listed as 70, the Confidence is listed as 3 and the Counts is recorded as 0.001866. Also, in the test on USP8 MIT domain [3], the Promiscuity is 1, the Replicates came to 3 and the Specificity amounted to 1.

Usually Kd stands for the equilibrium constant for the complex coming apart. In the case of `CSCC[C@H](NC(=O)CN)C(=O)N[C@@H](CCC(=O)O)C(=O)N[C@@H](CCCNC(=N)N)C(=O)N[C@H](C(=O)N[C@@H](CC(C)C)C(=O)NCC(=O)NCC(=O)N[C@@H](CC(C)C)C(=O)N[C@@H](CO)C(=O)N[C@@H](CO)C(=O)N1CCC[C@H]1C(=O)N[C@@H](CC(C)C)C(=O)N[C@@H](CCCNC(=N)N)C(=O)N[C@@H](CC(C)C)C(=O)N[C@@H](CC(C)C)C(=O)O)C(C)C` [KIAA1614_568 − 583], at USP8 Rhod domain, binding was characterised by a dissociation constant (Kd) of 10 ± 2 µM.

Turning to ELSQRLARLR [CHMP1B], the “binding to USP8 MIT” value in the test with USP8 MIT domain [4] was “USP8 MIT binding peptides”.

Turning to YVDLDAFLLEHGLPPS [DBP116 − 131], in the test with USP8 MIT domain [1], the “Percentage (%) normalized” value is 67%; the “Percentage (%)” value is recorded as 67%. Further, the “residues important for binding” value in the test on USP8 MIT domain [2] was “revealed the importance of an extended DxDxFxxEHG stretch”. For the same molecule, in the test with USP8 MIT domain [3], the “NGS counts (%)” value is reported as 16.16%, the max_counts was found to be 858, the Confidence is on record as 2 and the Counts is 0.06958. In addition, in the test with USP8 MIT domain [3], the Promiscuity was 3, the Replicates is 3 and the Specificity worked out at 0.9006.

Consider `CSCC[C@H](NC(=O)[C@H](CCCCN)NC(=O)[C@H](C)NC(=O)[C@H](CCC(=O)O)NC(=O)[C@H](Cc1c[nH]c2ccccc12)NC(=O)[C@H](CC(C)C)NC(=O)[C@H](C)NC(=O)[C@H](CC(C)C)NC(=O)CN)C(=O)N[C@@H](CCCCN)C(=O)N[C@@H](CCC(N)=O)C(=O)N[C@@H](CC(C)C)C(=O)N[C@@H](C)C(=O)N[C@@H](CCC(=O)O)C(=O)N[C@@H](CCCNC(=N)N)C(=O)N[C@@H](C)C(=O)O` [TET3_1705 − 1720], for which, at USP8 Rhod domain, the Kd turned out to be 33 ± 9 µM.

As for “NEWGNRFKKLADMYG [CDH1_863 − 877, Cadherin-1 peptide]”, in the test on USP8 MIT domain [1], the “Percentage (%) normalized” value was 71%; the “Percentage (%)” value is on record as 71%. Moreover, the “residues important for binding” value with USP8 MIT domain [2] was “corroborated the RFxxL motif and revealed a longer stretch is contributing to binding, with an upstream tryptophan being critical for the interaction”.
